In patent publication US20240246940A1, “HETEROARYL DERIVATIVE COMPOUND AND USE THEREOF” (VORONOI INC., priority 2021, published 2024) one finds GI50 data, which are given here for 22 compounds.

The subject of experiment [1] is HaCaT cells (EGFR expressing cell line). As to the kind of experiment: HaCaT cell proliferation inhibitory activity (CellTiter-Glo, 72 hours). The note with it: Homo sapiens. It counts as cell-based. On the procedure:
(§1) To evaluate the cell proliferation inhibitory activity of the compound according to the present invention on HER2 and EGFR kinases, the following method was performed using HER2 overexpressing cell lines (SK-BR-3, BT-474, and N-87) and EGFR expressing cell line (HaCaT).
(§2) McCOY'S 5A supplemented with 10% FBS was used for SK-BR-3 cells, RPMI-1640 medium supplemented with 20% FBS was used for BT-474 cancer cells, and RPMI-1640 medium supplemented with 10% FBS was used for N-87 cancer cells. DMEM supplemented with 10% FBS was used for HaCaT cells.
(§3) For SK-BR-3 cells, 5000 cells were aliquoted into each well of a white clear bottom 96 well plate (Corning) 48 hours before treatment with the compounds of Examples. For BT-474 cells, 5000 cells were aliquoted into each well of a white clear bottom 96 well plate (Corning) 48 hours before treatment with the compounds of Examples. For N-87 cells, 5000 cells were aliquoted into each well of a white clear bottom 96 well plate (Corning) 24 hours before treatment with the compounds of Examples. For HaCaT cells, 3000 cells were aliquoted into each well of a white clear bottom 96 well plate (Corning) 24 hours before treatment with the compounds of Examples. For SK-BR-3 cells and BT-474 cells, the compounds of Examples were diluted in dimethyl sulfoxide (three-fold dilution, a total of 11 concentrations) and injected each in an amount of 1 μl to a final concentration of 0.2 nM to 10 μM. For N-87 cells, the compounds of Examples were diluted in dimethyl sulfoxide (five-fold dilution, a total of 11 concentrations) and injected each in an amount of 0.5 μl to a final concentration of […] to 5 μM. For HaCaT cells, the compounds of Examples were diluted in dimethyl sulfoxide (three-fold dilution, a total of 11 concentrations) and injected each in an amount of 0.5 μl to a final concentration of 0.8 nM to 45 μM. For the measurement of living cells, the cells were stored at room temperature for 10 minutes using CellTiter-Glo cell viability reagent (Promega) after a certain period of time (SK-BR-3: 120 hours, BT-474: 120 hours, N-87: 72 hours, and HaCaT: 72 hours) post treatment with the compounds of Examples, and the luminescence intensity thereof was measured using a reader (SynergyNeo, Biotek). Each test was repeated three times.
(§4) The result values were calculated as a cell growth rate (%) compared to those of the control group. A graph was created using the GraphPad Prism version 5.0 program, and GI50 values were calculated.

Experiment [2] relates to SK-BR-3 cells (HER2 overexpressing cell line). As to the kind of experiment: SK-BR-3 cell proliferation inhibitory activity (CellTiter-Glo, 120 hours). The format is cell-based. The note with it: Homo sapiens. On the procedure:
as §1, §2, §3, §4

Consider `C=CC(=O)N1CC(Oc2cc3c(Nc4cc(-c5cccn6ccnc56)ccc4OC)ncnc3cc2OC)C1` [Example 35, 1-(3-((4-((5-(imidazo[1,2-a]pyridin-8-yl)-2-methoxyphenyl)amino)-7-methoxy-quinazolin-6-yl)oxy)azetidin-1-yl)prop-2-en-1-one], for which the GI50 in experiment [1] was 150 to 1000 nM; in experiment [2], at most 150 nM.

In the case of `C=CC(=O)N1CCC(Oc2cc3c(Nc4cc(-c5ccco5)ccc4OC)ncnc3cc2OC)C(C)C1` (centres unmarked) [Example 148, 1-(4-((4-((5-(furan-2-yl)-2-methoxyphenyl)amino)-7-methoxy-quinazolin-6-yl)oxy)-3-methylpiperidin-1-yl)prop-2-en-1-one], the GI50 in experiment [1] and in experiment [2] was at most 150 nM in each case.

As to `C=CC(=O)N1CCC(Oc2cc3c(Nc4cc(-c5ccco5)ccc4OCC)ncnc3cc2OC)CC1` [Example 118, 1-(4-((4-((2-ethoxy-5-(furan-2-yl)phenyl)amino)-7-methoxy-quinazolin-6-yl)oxy)piperidin-1-yl)prop-2-en-1-one], the GI50 in experiment [1] and in experiment [2] was at most 150 nM each time.

`C=CC(=O)N1CCC(Nc2cc3c(Nc4cc(-c5ccco5)ccc4OC)ncnc3cc2OCCOC)CC1` [Example 262, 1-(4-((4-((5-(furan-2-yl)-2-methoxyphenyl)amino)-7-(2-methoxyethoxy)quinazolin-6-yl)amino)piperidin-1-yl)prop-2-en-1-one]: the GI50 in experiment [1] and in experiment [2] was at most 150 nM each time.

Regarding `C=CC(=O)N1CC2CC1CC2Oc1cc2c(Nc3cc(-c4ccco4)ccc3OC)ncnc2cc1OC` (centres unmarked) [Example 115, 1-(5-((4-((5-(furan-2-yl)-2-methoxyphenyl)amino)-7-methoxy-quinazolin-6-yl)oxy)-2-azabicyclo[2. 2.1]heptan-2-yl)prop-2-en-1-one], the GI50 in experiment [1] is at most 150 nM; in experiment [2] it was 150 to 1000 nM.

For the compound `C=CC(=O)N1CCC(Oc2cc3c(Nc4cc(-c5cccnc5)ccc4OC)ncnc3cc2OC)CC1` [Example 66, 1-(4-((7-methoxy-4-((2-methoxy-5-(pyridin-3-yl)phenyl)amino)quinazolin-6-yl)oxy)piperidin-1-yl)prop-2-en-1-one], the GI50 in experiment [1] and in experiment [2] was 150 to 1000 nM each time.

Turning to `C=CC(=O)N1CCC(Nc2cc3c(Nc4cc(-c5ccc(F)cc5F)ccc4OC)ncnc3cc2OCCCN2CCOCC2)CC1` [Example 269, 1-(4-((4-((2′,4′-difluoro-4-methoxy-[1,1′-biphenyl]-3-yl)amino)-7-(3-morpholinopropoxy)quinazolin-6-yl)amino)piperidin-1-yl)prop-2-en-1-one], the GI50 in experiment [1] and in experiment [2] was at most 150 nM each time.

Regarding `C=CC(=O)N1CC(Oc2cc3c(Nc4cc(-c5cccc(F)c5C)ccc4OC)ncnc3cc2OC)C1` [Example 23, 1-(3-((4-((3′-fluoro-4-methoxy-2′-methyl-[1,1′-biphenyl]-3-yl)amino)-7-methoxy-quinazolin-6-yl)oxy)azetidin-1-yl)prop-2-en-1-one], the GI50 was at most 150 nM in experiment [1] and 150 to 1000 nM in experiment [2].

For the compound `C=CC(=O)N1CCC(Oc2cc3c(Nc4cc(-c5cnco5)ccc4OC)ncnc3cc2OC)CC1` [Example 130, 1-(4-((7-methoxy-4-((2-methoxy-5-(oxazol-5-yl)phenyl)amino)quinazolin-6-yl)oxy)piperidin-1-yl)prop-2-en-1-one], the GI50 in experiment [1] and in experiment [2] was 150 to 1000 nM each time.

For `C=CC(=O)N1CCC(Nc2cc3c(Nc4cc(-c5ccc(F)cc5F)ccc4OC)ncnc3cc2O[C@@H]2CCOC2)CC1` [Example 282, (R)-1-(4-((4-((2′,4′-difluoro-4-methoxy-[1,1′-biphenyl]-3-yl)amino)-7-((tetrahydrofuran-3-yl)oxy)quinazolin-6-yl)amino)piperidin-1-yl)prop-2-en-1-one], the GI50 in experiment [1] and in experiment [2] was at most 150 nM each time.

Turning to `C=CC(=O)N1CCC(Oc2cc3c(Nc4cc(-c5cccc(Cl)c5F)ccc4OC)ncnc3cc2OC)CC1` [Example 135, 1-(4-((4-((3′-chloro-2′-fluoro-4-methoxy-[1,1′-biphenyl]-3-yl)amino)-7-methoxy-quinazolin-6-yl)oxy)piperidin-1-yl)prop-2-en-1-one], the GI50 in experiment [1] and in experiment [2] was 150 to 1000 nM each time.

In the case of `C=CC(=O)N1CCC(Oc2cc3c(Nc4cc(-c5ccco5)ccc4OC(F)(F)F)ncnc3cc2OC)CC1` [Example 116, 1-(4-((4-((5-(furan-2-yl)-2-(trifluoro-methoxy)phenyl)amino)-7-methoxy-quinazolin-6-yl)oxy)piperidin-1-yl)prop-2-en-1-one], the GI50 in experiment [1] is at most 150 nM; in experiment [2], 150 to 1000 nM.

Take `C=CC(=O)N1CCC(Oc2cc3c(Nc4cc(-c5cccnc5)ccc4OC)ncnc3cc2OC)C1` (centres unmarked) [Example 59, 1-(3-((7-methoxy-4-((2-methoxy-5-(pyridin-3-yl)phenyl)amino)quinazolin-6-yl)oxy)pyrrolidin-1-yl)prop-2-en-1-one]: the GI50 in experiment [1] is over 1000 nM; in experiment [2], 150 to 1000 nM.

As to `C=CC(=O)Nc1cc2c(Nc3cc(-c4ccco4)ccc3OC)c(C#N)cnc2cc1OCC` [Example 291, N-(3-cyano-7-ethoxy-4-((5-(furan-2-yl)-2-methoxyphenyl)amino)quinolin-6-yl)acrylamide], the GI50 in experiment [1] is at most 150 nM; in experiment [2] it was over 1000 nM.

Take `C=CC(=O)N1CC(Oc2cc3c(Nc4cc(-c5cccc6ncsc56)ccc4OC)ncnc3cc2OC)C1` [Example 36, 1-(3-((4-((5-(benzo[d]thiazol-7-yl)-2-methoxyphenyl)amino)-7-methoxy-quinazolin-6-yl)oxy)azetidin-1-yl)prop-2-en-1-one]: the GI50 in experiment [1] and in experiment [2] was 150 to 1000 nM throughout.

As to `C=CC(=O)Nc1cc2c(Nc3cc(-c4ccco4)ccc3OC)ncnc2cc1OCCCN1CCOCC1` [Example 277, N-(4-((5-(furan-2-yl)-2-methoxyphenyl)amino)-7-(3-morpholinopropoxy)quinazolin-6-yl)acrylamide], the GI50 in experiment [1] and in experiment [2] was at most 150 nM in each case.

As for `C=CC(=O)N1CCC(Nc2cc3c(Nc4cc(-c5ccco5)ccc4OC)ncnc3cc2O[C@@H]2CCOC2)CC1` [Example 280, (R)-1-(4-((4-((5-(furan-2-yl)-2-methoxyphenyl)amino)-7-((tetrahydrofuran-3-yl)oxy)quinazolin-6-yl)amino)piperidin-1-yl)prop-2-en-1-one], the GI50 in experiment [1] and in experiment [2] was at most 150 nM throughout.

As for `C=CC(=O)N1CC(Oc2cc3c(Nc4cc(-c5ccnc6c(NC(=O)C7CC7)snc56)ccc4OC)ncnc3cc2OC)C1` [Example 234, N-(7-(3-((6-((1-acryloylazetidin-3-yl)oxy)-7-methoxyquinazolin-4-yl)amino)-4-methoxyphenyl)isothiazolo[4,3-b]pyridin-3-yl)cyclopropancarboxamide], the GI50 in experiment [1] and in experiment [2] was 150 to 1000 nM each time.

In the case of `C=CC(=O)N1CC(Oc2cc3c(Nc4cc(-c5cccs5)ccc4OC4CCOCC4)ncnc3cc2OC)C1` [Example 248, 1-(3-((7-methoxy-4-((2-((tetrahydro-2H-pyran-4-yl)oxy)-5-(thiophen-2-yl)phenyl)amino)quinazolin-6-yl)oxy)azetidin-1-yl)prop-2-en-1-one], the GI50 in experiment [1] and in experiment [2] was at most 150 nM in each case.

Take `C=CC(=O)N1CCC(Oc2cc3c(Nc4cc(-c5sccc5C)ccc4OC)ncnc3cc2OC)CC1` [Example 82, 1-(4-((7-methoxy-4-((2-methoxy-5-(3-methylthiophen-2-yl)phenyl)amino)quinazolin-6-yl)oxy)piperidin-1-yl)prop-2-en-1-one]: the GI50 in experiment [1] and in experiment [2] was at most 150 nM each time.

Regarding `C=CC(=O)N1CCC(Oc2cc3c(Nc4cc(-c5ccnn5C)ccc4OC)ncnc3cc2OC)CC1` [Example 75, 1-(4-((7-methoxy-4-((2-methoxy-5-(1-methyl-1H-pyrazol-5-yl)phenyl)amino)quinazolin-6-yl)oxy)piperidin-1-yl)prop-2-en-1-one], the GI50 in experiment [1] is over 1000 nM; in experiment [2], 150 to 1000 nM.

Consider `C=CC(=O)N1CC(Oc2cc3c(Nc4cc(-c5cccc(Cl)c5F)ccc4OC)ncnc3cc2OC)C1` [Example 20, 1-(3-((4-((3′-chloro-2′-fluoro-4-methoxy-[1,1′-biphenyl]-3-yl)amino)-7-methoxy-quinazolin-6-yl)oxy)azetidin-1-yl)prop-2-en-1-one], for which the GI50 in experiment [1] and in experiment [2] was at most 150 nM in each case.
